pIC50: −log10 of the molar value.
Target: mitochondrial respiratory complex II (succinate-ubiquinone oxidoreductase) (Rattus norvegicus, UniProt P21913+Q641Z9+Q6PCT8)
Sequence (P21913 31-282): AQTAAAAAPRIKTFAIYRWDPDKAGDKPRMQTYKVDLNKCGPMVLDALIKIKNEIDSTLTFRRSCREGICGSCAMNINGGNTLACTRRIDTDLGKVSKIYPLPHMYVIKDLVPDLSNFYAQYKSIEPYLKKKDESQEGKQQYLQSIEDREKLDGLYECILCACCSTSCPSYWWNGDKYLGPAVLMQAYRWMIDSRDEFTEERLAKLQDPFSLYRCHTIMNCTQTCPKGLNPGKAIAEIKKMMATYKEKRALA
Sequence (Q641Z9 30-169): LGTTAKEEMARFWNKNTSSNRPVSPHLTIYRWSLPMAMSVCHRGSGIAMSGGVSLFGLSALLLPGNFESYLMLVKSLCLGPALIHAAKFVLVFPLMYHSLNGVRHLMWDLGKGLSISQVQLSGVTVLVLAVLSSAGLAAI
Sequence (Q6PCT8 57-159): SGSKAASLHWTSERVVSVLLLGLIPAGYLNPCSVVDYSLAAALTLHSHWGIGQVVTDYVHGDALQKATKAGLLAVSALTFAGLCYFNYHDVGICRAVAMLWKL
Sequence (Q920L2 35-656 partner): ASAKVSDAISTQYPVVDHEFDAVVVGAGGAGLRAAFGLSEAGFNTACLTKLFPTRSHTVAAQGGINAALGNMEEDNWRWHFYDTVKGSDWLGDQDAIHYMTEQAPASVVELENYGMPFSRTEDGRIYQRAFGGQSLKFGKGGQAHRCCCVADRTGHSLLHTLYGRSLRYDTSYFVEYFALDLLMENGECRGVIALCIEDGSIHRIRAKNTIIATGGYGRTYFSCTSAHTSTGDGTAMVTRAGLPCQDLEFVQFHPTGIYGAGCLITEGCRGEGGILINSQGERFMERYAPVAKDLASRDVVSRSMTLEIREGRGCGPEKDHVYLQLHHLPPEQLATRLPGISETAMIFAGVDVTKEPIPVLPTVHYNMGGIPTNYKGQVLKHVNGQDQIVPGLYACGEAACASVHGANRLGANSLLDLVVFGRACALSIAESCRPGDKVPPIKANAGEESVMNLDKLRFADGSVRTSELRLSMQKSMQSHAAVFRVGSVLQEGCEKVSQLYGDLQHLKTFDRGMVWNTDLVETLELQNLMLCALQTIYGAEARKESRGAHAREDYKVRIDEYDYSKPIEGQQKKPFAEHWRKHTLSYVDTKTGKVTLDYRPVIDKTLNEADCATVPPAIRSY

In the case of `COc1[nH]c(=O)c(C(=O)[C@@H](C)C[C@H](C)[C@@H](Cl)CCl)c(O)c1OC` [AA5, atpenin A5], the pIC50 was 8.08.

— article PMC2776710 (Basic research in cardiology, 2009)
